# Columns and labels:
# [1] = system: mesenteric lymph nodes (MLN) cells; assay: Lymphocyte proliferation (thymidine incorporation) in response to colonic extract, cells from colitis-induced mice; assay type: cell-based
# Experimental: FIGS. 4A-4F show the effect of GA on the lymphocyte proliferation in different mouse strains. The responses of normal mice, colitis-induced mice, and colitis-induced mice treated with GA orally or parenterally daily are compared in the BALB/c (FIGS. 4A, 4B), (SJL/JxBALB/c)F1 (FIGS. 4C, 4D), and SJL/J (FIGS. 4E, 4F) strains. Cells from spleens (FIGS. 4A, 4C, 4E) and mesenteric lymph nodes (MLN) (FIGS. 4B, 4D, 4F) were cultured, 7 days after disease induction, with no antigen, colonic extract (CE, 200 μg/ml), or GA (50 μg/ml). Results of thymidine incorporation are expressed as mean cpm±ISD of six culture wells and represent one of two similar experiments, using pooled cells from 3-5 mice in each group. # Indicates significant increase in the response to CE by colitic mice. * Indicates significant decrease in the response to CE induced by GA treatment.
# Colon extract. Colons of syngeneic normal mice were cut into small strips and homogenized. The homogenate was diluted in PBS and passed through glass wool. Protein quantity was measured by using a protein assay kit (Bio-Rad, Richmond, Calif.).
# (§1) Reactivity assays. Spleens and mesenteric lymph nodes (MLN) cells (0.5×10^6 cell/well) were cultured with either GA (50 μg/ml), colon extract (200 μg/ml), immobilized anti-CD3 (5 μg/ml), or PBS control, in a final volume of 250 μl/well (6 wells for each antigen). For proliferation assay, cells were cultured in RPMI 1640 with 10% FCS, pulsed with 1 μCi of [3H] thymidine after 48 h incubation, and harvested 12 h later. For cytokine (TNF-α and TGF-β) assay, cells were cultured in serum-free medium (DCCM-1), supernatants were collected after 72 h, and tested for the cytokines by ELISA using mAbs pairs (R&D Systems, Minneapollis, Minn.) according to the manufacturer's instruction.
# [2] = system: TNF-α secretion by spleen and MLN cells; assay: TNF-α secretion by spleen and MLN cells (ELISA); assay type: cell-based, mice
# Experimental: FIGS. 5A-5C show the effect of GA on TNF-α secretion in different mouse strains. The responses of normal mice, colitis-induced mice, and colitis-induced mice treated with GA orally or parenterally daily are compared in the BALB/c (FIG. 5A), (SJL/JxBALB/c)F1 (FIG. 5B), and SJL/J (FIG. 5C) strains. Cells from spleens and mesenteric lymph nodes (MLN) were cultured, 7 days after disease induction, with immobilized anti-CD3 (5 μg/ml). After 24 hours, supernatants from six culture wells were pooled and TNF-α was measured by ELISA in duplicates. Results are expressed as TNF-α concentration (pg/ml±SD) and represent one of two similar experiments, using pooled cells from 3-5 mice in each group. # Indicates significant increase in TNF-α in colitic mice in comparison to normal mice. * Indicates significant decrease in TNF-α induced by GA treatment in comparison to untreated colitis induced mice.
# as §1
# [3] = system: TGF-β secretion by spleen and MLN cells; assay: TGF-β secretion by spleen and MLN cells (ELISA); assay type: cell-based; details: colitis-induced BALB/c mice treated with GA; anti-CD3 stimulation
# Experimental: FIGS. 6A-6B show the effect of GA treatment on TGF-β secretion by lymphocytes of TNBS-induced BALB/c mice. Cells of spleen or mesenteric lymph nodes (MLN) from normal mice, colitis-induced mice, and colitis-induced mice treated with GA were cultured either with GA (50 μg/ml) (FIG. 6A) or immobilized anti-CD3 (5 μg/ml) (FIG. 6B). After 72 hours, supernatants from six culture wells were pooled and TGF-β was measured by ELISA in duplicates. Results are expressed as TGF-β concentration (pg/ml±1 SD) and represent one of two similar experiments, using pooled cells from 3-5 mice in each group. # Indicates significant decrease in TGF-β in colitic mice in comparison to normal mice. * Indicates significant increase in TGF-β induced by GA treatment in comparison to untreated colitis induced mice.
# Reactivity assays. Spleens and mesenteric lymph nodes (MLN) cells (0.5×10^6 cell/well) were cultured with either GA (50 μg/ml), colon extract (200 μg/ml), immobilized anti-CD3 (5 μg/ml), or PBS control, in a final volume of 250 μl/well (6 wells for each antigen). For proliferation assay, cells were cultured in RPMI 1640 with 10% FCS, pulsed with 1 μCi of [3H] thymidine after 48 h incubation, and harvested 12 h later. […]
# [4] = system: DSS-induced colitis; assay: Dextran sulfate sodium (DSS)-induced colitis in C57BL/6 mice; assay type: in vivo; details: GA 2.5 mg/day SC daily, by day 7 after DSS feeding, preliminary experiment
# Experimental: Feeding mice for several days with dextran sulfate sodium (DSS) polymers in the drinking water induces an acute colitis with bloody diarrhea, histological damage, and inflammation (Wirtz and Neurath, 2000).
# Female C57BL/6, 7 weeks old mice, were fed with 2.5% DSS solution in the drinking water for 7 days. GA was administered subcutaneously by daily injections—2.5 mg/day, in PBS, starting either 7 days before or in the same day of DSS feeding.
substance,measurement,setting,value
glatiramer acetate [GA],Inhibition of the MLN proliferation response to colonic extract by GA treatment,[1]; MLN from (SJL/JxBALB/c)F1 mice treated either orally or parenterally with GA,complete inhibition
same,Inhibition of the local MLN proliferation response to colonic extract by GA treatment,"[1]; MLN from BALB/c, colonic extract 200 μg/ml, 7 days after disease induction",66%
same,Inhibition of the MLN proliferation response to colonic extract by GA treatment,[1]; MLN from SJL/J mice treated either orally or parenterally with GA,complete inhibition
same,Effect of GA treatment on TNF-α levels,[2]; SJL/J mice parenterally treated daily with GA,drastic decrease in TNF-α levels
same,Effect of GA treatment on TNF-α secretion in response to anti-CD3,"[2]; all strains, both spleens and MLN, all instances except MLN of SJL/J mice treated orally with GA",substantial reduction in TNF-α
same,TNF-α secretion on in vitro stimulation,[2]; in vitro stimulation of cells by GA (50 μg/ml),did not result in secretion of TNF-α
same,TGF-β secretion in the MLN relative to the secretion of normal mice,[3],2.2 folds
same,Maximum weight loss,[4]; injected from day 0,4%
same,Maximum weight loss,[4]; injected from day −7,7%

# Reference: patent US8008258B2, “Cop 1 for treatment of inflammatory bowel diseases” (Yeda Research and Development Co. Ltd., priority 2003, dated 2011)
